Laboratory results: patent publication US8710077B2, “Cycloalkylamine substituted isoquinoline and isoquinolinone derivatives” (Sanofi, priority 2006, dated 2014)

Each compound was assayed against T1, human recombinant ROCK II (Homo sapiens, UniProt O75116) (assay: Determination of Rho Kinase Inhibition (Caliper peptide phosphorylation assay)). Conditions: ROCK II residues 11-552, 60 min at 32° C., compound in the form (salt or free base) obtained in the examples.
T1 construct: recombinant human ROCK-II residues 11-552; His6 (N); purchased Upstate Ltd., Dundee, UK
Assay type: biochemical
Experimental: Determination of Rho Kinase Inhibition
To measure Rho-kinase inhibition, IC50 values were determined according to the following protocol:
Active human recombinant ROCK II (N-terminal His6-tagged recombinant human ROCK-II residues 11-552) was purchased from Upstate Ltd., Dundee, UK. The peptide substrate, Fluorescein-AKRRRLSSLRA-COOH, was obtained from JPT Peptide Technologies, Berlin, Germany. Adenosine-5′-triphosphate (ATP), bovine serum albumine (BSA), dimethylsulphoxide (DMSO), 4-(2-Hydroxyethyl)piperazine-1-ethanesulfonic acid (Hepes), Brij-35 and dithiothreitol (DTT) were purchased from Sigma-Aldrich, Munich, Germany. Tris(hydroxymethyl)-aminomethane (Tris), magnesium chloride, NaOH, 1M HCl and EDTA were obtained from Merck Biosciences, Darmstadt, Germany. “Complete” protease inhibitor was from Roche Diagnostics, Mannheim, Germany.
Test compounds were diluted to the appropriate concentrations in buffer 1 (25 mM Tris-HCl, pH 7.4, 5 mM MgCl2, 2 mM DTT, 0.02% (w/v) BSA and 3% DMSO). The ROCK II enzyme was diluted to a concentration of 100 ng/ml in buffer 2 (25 mM Tris-HCl, pH 7.4, 5 mM MgCl2, 2 mM DTT and 0.02% (w/v) BSA). The peptide substrate and ATP were diluted to concentrations of 3 μM and 120 μM, respectively, in the buffer 2. Two μl of the compound solution were mixed with 2 μl of the diluted enzyme in a 384-well small volume microtiter plate (Greiner, Bio-One, Frickenhausen, Germany), and the kinase reaction was initiated by addition of 2 μl of the solution containing peptide substrate and ATP. After 60 min incubation at 32° C., the reaction was stopped by addition of 20 μl of a solution containing 100 mM Hepes-NaOH, pH 7.4, 0.015% (v/v) Brij-35, 45 mM EDTA and 0.227% chip coating reagent 1 (Caliper Lifescience Inc, Hopkinton, Mass.). Phosphorylation of the substrate peptide was then detected on a Caliper 3000 instrument essentially as described by Pommereau et al (J. Biomol. Screening 9 (5), 409-416, 2004). Separation conditions were as follows: Pressure—1.3 psi, upstream voltage—1562 V, downstream voltage—500 V, sample sip time 200 ms. Positive controls (buffer 1 instead of compound) and negative controls (buffer 1 instead of compound and buffer 2 instead of ROCK II) were run in parallel on each plate.
The following products/compounds were tested in said assay by using the respective form (salt or free base) obtained as in the examples described above and the following activities were measured.

T1 sequence (O75116 11-552): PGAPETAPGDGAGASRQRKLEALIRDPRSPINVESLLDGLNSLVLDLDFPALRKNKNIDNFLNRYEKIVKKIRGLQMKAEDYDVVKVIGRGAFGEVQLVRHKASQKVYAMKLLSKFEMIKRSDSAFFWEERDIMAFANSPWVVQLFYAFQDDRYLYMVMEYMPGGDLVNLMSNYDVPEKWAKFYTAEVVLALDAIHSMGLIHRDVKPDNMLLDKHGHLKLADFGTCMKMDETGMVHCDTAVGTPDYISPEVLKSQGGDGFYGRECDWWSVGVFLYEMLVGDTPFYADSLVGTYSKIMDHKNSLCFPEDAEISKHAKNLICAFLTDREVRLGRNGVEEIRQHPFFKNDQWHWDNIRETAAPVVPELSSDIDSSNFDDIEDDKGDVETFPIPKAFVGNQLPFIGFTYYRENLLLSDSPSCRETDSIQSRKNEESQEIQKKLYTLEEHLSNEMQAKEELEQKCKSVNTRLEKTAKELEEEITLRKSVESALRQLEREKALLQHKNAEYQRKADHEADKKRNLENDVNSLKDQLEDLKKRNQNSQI

SMILES	IC50 [nM]
NCC1(c2ccccc2)CCC(Oc2cc3ccncc3cc2Cl)CC1 (stereo not drawn) [Compound 120, C-[4-(7-Chloro-isoquinolin-6-yloxy)-1-phenyl-cyclohexyl]-methylamine]	≤ 1000
N[C@]1(C2CC2)CC[C@H](Oc2cc3cc[nH]c(=O)c3cc2Cl)CC1 [Compound 41, 6-(cis-4-Amino-4-cyclopropyl-cyclohexyloxy)-7-chloro-2H-isoquinolin-1-one]	≤ 1000
NCC1(c2ccccc2)CCC(Oc2cc3cc[nH]c(=O)c3cc2Cl)CC1 (stereo not drawn) [Compound 108, 6-(4-Aminomethyl-4-phenyl-cyclohexyloxy)-7-chloro-2H-isoquinolin-1-one]	≤ 1000
NCC1(c2ccc(Cl)cc2)CCC(Oc2cc3cc[nH]c(=O)c3cc2Cl)CC1 (stereo not drawn) [Compound 109, 6-[4-Aminomethyl-4-(4-chloro-phenyl)-cyclohexyloxy]-7-chloro-2H-isoquinolin-1-one]	≤ 1000
NC1(CC(O)CO)CCC(Oc2cc3cc[nH]c(=O)c3cc2Cl)CC1 (mixture of isomers) [Compound 57, 6-[4-amino-4-(2,3-dihydroxy-propyl)-cyclohexyloxy]-7-chloro-2H-isoquinolin-1-one]	≤ 1000
C=CCC1(N)CCC(Oc2cc3cc[nH]c(=O)c3cc2Cl)CC1 (mixture of isomers) [Compound 20, 6-(4-Allyl-4-amino-cyclohexyloxy)-7-chloro-2H-isoquinolin-1-one]	≤ 1000
NCC1(c2ccc(Cl)c(Cl)c2)CCC(Oc2cc3cc[nH]c(=O)c3cc2Cl)CC1 (stereo not drawn) [Compound 116, 6-[4-Aminomethyl-4-(3,4-dichloro-phenyl)-cyclohexyloxy]-7-chloro-2H-isoquinolin-1-one]	≤ 1000

Results, then the compound that gave them:

IC50 [nM]	SMILES
≤ 1000	NCC1(c2ccc(F)cc2)CCC(Oc2cc3cc[nH]c(=O)c3cc2Cl)CC1 (stereo not drawn) [Compound 113, 6-[4-Aminomethyl-4-(4-fluoro-phenyl)-cyclohexyloxy]-7-chloro-2H-isoquinolin-1-one]
1000 to 10000	Cc1cccc(C2(CN)CCC(Oc3cc4cc[nH]c(=O)c4cc3Cl)CC2)c1 (stereo not drawn) [Compound 111, 6-[4-Aminomethyl-4-(3-methyl-phenyl)-cyclohexyloxy]-7-chloro-2H-isoquinolin-1-one]
≤ 1000	NCC1(c2cccc(Cl)c2)CCC(Oc2cc3cc[nH]c(=O)c3cc2Cl)CC1 (stereo not drawn) [Compound 110, 6-[4-Aminomethyl-4-(3-chloro-phenyl)-cyclohexyloxy]-7-chloro-2H-isoquinolin-1-one]
≤ 1000	COc1ccc(C2(CN)CCC(Oc3cc4cc[nH]c(=O)c4cc3Cl)CC2)cc1 (stereo not drawn) [Compound 114, 6-[4-Aminomethyl-4-(4-methoxy-phenyl)-cyclohexyloxy]-7-chloro-2H-isoquinolin-1-one]
≤ 1000	COc1ccc(C2(CN)CCC(Oc3cc4cc[nH]c(=O)c4cc3Cl)CC2)cc1OC (stereo not drawn) [Compound 112, 6-[4-Aminomethyl-4-(3,4-dimethoxy-phenyl)-cyclohexyloxy]-7-chloro-2H-isoquinolin-1-one]
